The values that follow come from patent US12617759B2, “Modifier of four-membered ring derivative, preparation method and application thereof” (Shanghai Hansoh Biomedical Co., Ltd., priority 2019, dated 2026).

Read-outs that look alike come from different tables or passages of the source.

Data set [1] in a line: Stability in human liver microsome in vitro. The data set is classed as in vitro ADME. The method, then: (§1) To evaluate the metabolic stability of the compounds of the present invention in liver microsome in vitro.
(§2) Formulation of the working solution of the compound: 2 μL of the stock solution of the compound was added to 998 μL of phosphate buffer, and the final concentration was 20 μM.
(§3) 78.1 μL of 20 mg/mL microsome was diluted to 2.5 mL with 100 mM phosphate buffer and mixed well, and the final concentration was 0.625 mg/mL.
(§4) 33.3 mg of NADPH and 25.8 mg of UDPGA were weighed respectively, followed by the addition of 2 mL of 100 mM phosphate buffer. The final concentrations were 20 mM.
(§5) 1 mg of Alamethicin was weighed, to which 200 μL of DMSO was added to obtain a 5 mg/mL solution. 10 μL of this solution was added to 990 μL of phosphate buffer (pH 7.4), and the final concentration was 50 μg/mL.
(§6) 400 μL of the formulated liver microsome, 25 μL of the working solution of the compound (10 μM) and 25 μL of Alamethicin (50 μg/mL) were added to a 96-well plate successively, which was then pre-incubated at 37° C. for 10 min. 50 μL of the formulated NADPH/UDPGA was added to initiate the reaction, and the plate was incubated at 37° C. The total volume of the reaction system was 500 μL. The final contents of the components are as follows:
(§7) […] The resulting sample was centrifuged at 4000 g for 10 min, and the supernatant was collected for LC-MS/MS analysis.
For orientation: Liver microsomes are a subcellular fraction often used to study metabolism.

Data set [2] can be described thus: Stability in dog liver microsome in vitro. It is filed as in vitro ADME. As to the method: as §1, §2, §3, §4, §5, §6, §7
The nature of data set [3]: Stability in rat liver microsome in vitro. It is filed as in vitro ADME, SD rat. The method, then: as §1, §2, §3, §4, §5, §6, §7
A further data set concerns rats. The experiment in a line: Pharmacodynamic model of active escape experiment in rats. The data set is classed as in vivo. The following applies: F344 rats, oral dose 1 mg/kg one hour before test; vehicle 91-98%. As to the method:
To evaluate the anti-schizophrenic effect of the compounds using the pharmacodynamic model of the active escape experiment in rats.
A prescription amount of the compound was weighed, followed by the addition of a prescription volume of 0.5% CMC-Na+1% Tween 80 solution. The compound solution was formulated before the administration, stored at 2 to 8° C., and used within 4 days.
5.2 Baseline Test and Grouping
The day before the compound screening test, a baseline test was performed. The test process was the same as 5.1.1 to 5.1.3, and the number of the baseline test was 20. The animals whose number of avoids reached 16 (80%) were grouped according to the number of avoids, 10 animals per group. The first group was administered with the vehicle orally, and the other groups were administered with the corresponding test compounds according to the experimental design.
The compound was administered orally (5 mL/kg) one hour before the test; The test process was the same as 5.1.1 to 5.1.4, and the number of the test was 20.
The following data was collected by the software for data analysis: • Number of avoids of the animal; • Number of escape failures of the animal; • Escape latency of the animal; • All measurement data were expressed as mean±standard error (Mean±SEM), and analyzed by Graphpad 6 statistical software. The difference was considered to be significant when p<0.05. 7.

A short description of data set [4]: Pharmacokinetic assay in Balb/c mice (plasma and brain tissue). The data set is classed as in vivo. Conditions: male, mouse, po, p.o. 5 mg/kg; for AUC(0-t): read-out: Area under curve AUC0-t; for Tmax: read-out: Peak time tmax; for Cmax: read-out: Plasma concentration Cmax. The method, then:
Balb/c mice were used as test animals. The pharmacokinetic behavior in mouse body (plasma and brain tissue) of the compounds of Examples of the present invention orally administrated at a dose of 5 mg/kg was studied.
Male Balb/c mice (12 mice per group), purchased from Shanghai Jiesijie Laboratory Animal Co., LTD, with Certificate No.: SCXK (Shanghai) 2013-0006 N0.311620400001794.
The test compound was dissolved in 0.5% CMC-Na (1% Tween80) by sonication to formulate a clear solution or homogeneous suspension.
After an overnight fast, male Balb/c mice (12 mice per group) were administered p.o. with the test compound at an administration dose of 5 mg/kg and an administration volume of 10 mL/kg.
0.2 mL of blood was taken from the heart of the mouse before administration and at 1, 2, 4, 8 and 24 hours after administration, and the mice were sacrificed with CO2. The samples were stored in EDTA-K2 tubes, and centrifuged for 6 minutes at 4° C., 6000 rpm to separate the plasma. The plasma samples were stored at −80° C. Whole brain tissue was taken out, weighed, placed in a 2 mL centrifuge tube, and stored at −80° C.
• 1) 160 μL of acetonitrile was added to 40 μL of the plasma sample for precipitation, and then the mixture was centrifuged for 5 to 20 minutes at 3500×g. • 2) 90 μL of acetonitrile containing internal standard (100 ng/mL) was added to 30 µL of the plasma and brain homogenate sample for precipitation, and then the mixture was centrifuged for 8 minutes at 13000 rpm. • 3) 70 μL of water was added to 70 μL of the treated supernatant and mixed by vortex for 10 minutes. 20 μL of the supernatant was taken to analyze the concentration of the test compound by LC/MS/MS. LC/MS/MS analytical instrument: AB Sciex API 4000 Qtrap. 2.7 Liquid Chromatography Analysis: • Liquid chromatography condition: Shimadzu LC-20AD pump • Chromatographic column: Agilent ZORBAX XDB-C18 (50×2.1 mm, 3.5 m); Mobile phase: Eluent A was 0.1% formic acid in water, and Eluent B was acetonitrile • Flow rate: 0.4 mL/min • Elution time: 0-4.0 minutes, the eluent is as follows:
The main parameters of pharmacokinetics were calculated by WinNonlin 6.1.

Turning to `O=C(N[C@H]1C[C@H](CCN2CCN(c3cccc(Cl)c3Cl)CC2)C1)c1ccon1` [Example 25A, N-(Trans-3-(2-(4-(2,3-dichlorophenyl)piperazin-1-yl)ethyl)cyclobutyl)isoxazole-3-carboxamide], the “Remaining (%, 120 min)” value in data set [1] (120 min) amounted to 38.8%; in data set [2] (120 min) it was 30.2%; in data set [3] (120 min), 27.0%. For the same molecule, the half-life at 1 μM in data set [1] (human liver microsomes, pH 7.4, 1 μM compound, NADPH/UDPGA, read-out: Half life (t1/2)) amounted to 1.5 h; in data set [2] (dog liver microsomes, pH 7.4, 1 μM compound, NADPH/UDPGA, read-out: Half life (t1/2)) it was 1.16 h; in data set [3] (SD, rat liver microsomes, pH 7.4, 1 μM compound, NADPH/UDPGA, read-out: Half life (t1/2)), 1.01 h. Moreover, the microsomal CLint at 1 μM in data set [1] (human liver microsomes, pH 7.4, 1 μM compound, NADPH/UDPGA, read-out: Intrinsic clearance rate (CLint)) came to 15.4 µL/min/mg; in data set [2] (dog liver microsomes, pH 7.4, 1 μM compound, NADPH/UDPGA, read-out: Intrinsic clearance rate (CLint)), 19.9 µL/min/mg; in data set [3] (SD, rat liver microsomes, pH 7.4, 1 μM compound, NADPH/UDPGA, read-out: Intrinsic clearance rate (CLint)) it was 22.9 µL/min/mg. In the data set on rats, the CAR value was 18%. Besides, the values for the AUC(0-t) in data set [4] (Brain) and in data set [4] (Plasma) were 11900 ng·h/mL and 3050 ng·h/mL, respectively. Further, the Tmax is 1 h in data set [4] (Brain) and 0.5 h in data set [4] (Plasma). In addition, the Cmax was determined as 1540 ng/mL in data set [4] (Brain) and 362 ng/mL in data set [4] (Plasma). In addition, the AUC(0-inf) in data set [4] (Plasma, read-out: Area under curve AUC0-∞) was determined as 12900 ng·h/mL. Also, the MRT in data set [4] (Plasma, read-out: Average residence time MRT) amounted to 6.2 h. In addition, in data set [4] (Plasma, read-out: Half life t1/2 (converted)), the half-life was 5.6 h.

The Tmax is the time from dosing to the highest level. As a reminder, the MRT is a mean duration of stay, worked out from the concentration-time curve.
